Data as given in the supplement of paper PMC7661543.
± gives the standard deviation of the averaged measurements.

Assays:
Assay in all cases: relative cell number vs DMSO control (72 h) (% of DMSO); higher = less growth inhibition (more cells)
Details in all cases: sgRNA knockout: sgNT
BT-20 = test system: BT-20
Method: (§1)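 QMAP-Seq: a pool of 5 breast cancer cell lines (ZR-75-1, SKBR3, HCC-38, MDA-MB-231, BT-20), each carrying 12 doxycycline-inducible Cas9 sgRNA perturbations (11 knockouts plus non-targeting sgNT), was treated with compounds for 72 h at four 10-fold doses (10 nM-10 uM or 1 nM-1 uM range). Barcodes were amplified and sequenced, and cell number was interpolated from 293T spike-in standard curves. The result is expressed as % of the median of DMSO wells. Two biological replicates.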

HCC-38 = test system: HCC-38
Method: as §1

MDA-MB-231 = test system: MDA-MB-231
Method: as §1

SKBR3 = test system: SKBR3
Method: as §1

ZR-75-1 = test system: ZR-75-1
Method: as §1

Row | SMILES | relative cell number (BT-20; 10 nM) | relative cell number (BT-20; 100 nM) | relative cell number (BT-20; 1000 nM) | relative cell number (BT-20; 10000 nM) | relative cell number (HCC-38; 10 nM) | relative cell number (HCC-38; 100 nM) | relative cell number (HCC-38; 1000 nM) | relative cell number (HCC-38; 10000 nM) | relative cell number (MDA-MB-231; 10 nM) | relative cell number (MDA-MB-231; 100 nM) | relative cell number (MDA-MB-231; 1000 nM) | relative cell number (MDA-MB-231; 10000 nM) | relative cell number (SKBR3; 10 nM) | relative cell number (SKBR3; 100 nM) | relative cell number (SKBR3; 1000 nM) | relative cell number (SKBR3; 10000 nM) | relative cell number (ZR-75-1; 10 nM) | relative cell number (ZR-75-1; 100 nM) | relative cell number (ZR-75-1; 1000 nM) | relative cell number (ZR-75-1; 10000 nM)
1 | CS(=O)(=O)c1cccc(CNc2nc(Nc3ccc4c(c3)CCC(=O)N4)ncc2C(F)(F)F)c1 | 118 ± 28 | 145 ± 3.4 | 105.9 ± 0.85 | 57 ± 3.3 | 96.9 ± 21 | 119 ± 18 | 86.8 ± 25 | 50.5 ± 4.3 | 122 ± 34 | 123.1 ± 0.038 | 103 ± 6.8 | 32.1 ± 9.6 | 85.7 ± 19 | 110.3 ± 0.38 | 87.3 ± 18 | 54.4 ± 9.9 | 98.8 ± 47 | 170 ± 92 | 80.9 ± 4.7 | 45.1 ± 2.2
2 | C[C@@H](Oc1cc(-n2cnc3ccc(CN4CCN(C)CC4)cc32)sc1C(N)=O)c1ccccc1C(F)(F)F | 48.1 ± 11 | 26.1 ± 17 | 31.8 ± 0.68 | 23.3 ± 2.4 | 23.8 ± 3.1 | 16.7 ± 4.5 | 17.3 ± 0.54 | 17.6 ± 4.5 | 40.66 ± 0.27 | 19.5 ± 2.2 | 12.5 ± 0.32 | 8.66 ± 5.4 | 13.6 ± 4.1 | 13.5 ± 1.8 | 13.4 ± 4.3 | 23.5 ± 4.7 | 112 ± 14 | 22.1 ± 8.8 | 27.7 ± 3.9 | 29.7 ± 12
3 | C[C@@H]1CN(CC(=O)Nc2ccc3c(c2)Cc2cccc(-c4cc(=O)cc(N5CCOCC5)o4)c2S3)C[C@H](C)O1 | 73.7 ± 24 | 119 ± 3.5 | 108 ± 8.4 | 62.4 ± 3.5 | 89.9 ± 3.7 | 110 ± 4.4 | 76.9 ± 3.3 | 64.3 ± 9.2 | 111 ± 4.9 | 85.1 ± 5.2 | 95.9 ± 20 | 59.4 ± 6.4 | 86.5 ± 26 | 95.9 ± 33 | 87.7 ± 36 | 33.6 ± 4.6 | 95.6 ± 6 | 92.7 ± 26 | 80.8 ± 9.4 | 38.7 ± 11
4 | C[C@@]1(C(=O)Nc2ccc(F)nc2)CCCN1c1nc(Nc2cc(C3CC3)n[nH]2)c2cccn2n1 | 77.5 ± 8.7 | 89.5 ± 17 | 90 ± 11 | 67.5 ± 16 | 87.8 ± 4.9 | 82.5 ± 10 | 81.5 ± 2.7 | 45.49 ± 0.25 | 126 ± 33 | 96.4 ± 18 | 70.4 ± 5.7 | 43.2 ± 7.3 | 72 ± 24 | 89.9 ± 15 | 74.8 ± 14 | 66 ± 6.5 | 92.7 ± 27 | 73.9 ± 16 | 36 ± 18 | 30.8 ± 12
5 | Cc1[nH]c(/C=C2\C(=O)Nc3ccc(S(=O)(=O)N(C)c4cccc(Cl)c4)cc32)c(C)c1C(=O)N1CCN(C)CC1 | 89.8 ± 4.6 | 95 ± 19 | 74.8 ± 2.8 | 60.9 ± 35 | 109 ± 14 | 92.58 ± 0.79 | 90.6 ± 7.8 | 55.2 ± 1.4 | 134 ± 62 | 94.8 ± 19 | 95.3 ± 23 | 42.5 ± 11 | 90.1 ± 7.7 | 102 ± 8.9 | 87.4 ± 16 | 59.6 ± 16 | 95.1 ± 14 | 97.4 ± 3.6 | 54 ± 27 | 37.5 ± 6
6 | Cc1c(Cn2c(C)nc3c(C(=O)O)cc(N4CCOCC4)cc32)cccc1C(F)(F)F | 100 ± 7.3 | 117 ± 23 | 87 ± 10 | 82.1 ± 1.1 | 115 ± 17 | 85.5 ± 2.4 | 108 ± 19 | 102 ± 10 | 105 ± 4.5 | 123 ± 22 | 93.9 ± 27 | 112 ± 23 | 137 ± 8 | 123 ± 22 | 98.4 ± 25 | 99.1 ± 8.4 | 126 ± 2.5 | 98.6 ± 13 | 72.1 ± 7 | 108 ± 53
